The NIST ThermoML archive (doi:10.1016/j.fluid.2007.01.029)
Numbers after ± are expanded uncertainties.

settings: Crystal

| Structure (SMILES) | Normal melting temperature [°C] |
| --- | --- |
| c1ccccc1 [benzene] | 5.44 ± 0.6 |
| C1CC[C@H]2CCCC[C@H]2C1 [cis-decahydronaphthalene] | -45.08 ± 0.6 |
| C1CC[C@H]2CCCC[C@@H]2C1 [trans-decahydronaphthalene] | -30.44 ± 0.6 |

Other lines, results leading:

| Normal melting temperature [°C] | Structure (SMILES) |
| --- | --- |
| 6.48 ± 0.6 | C1CCCCC1 [cyclohexane] |
| 79.99 ± 0.6 | c1ccc2ccccc2c1 [naphthalene] |
